Key:
CYP17A1 = biological target: T1, CYP17A1 (Homo sapiens, UniProt P05093); assay: CYP17A1 inhibition (CYP17A1 bactosomes, progesterone substrate, LC-MS/MS); format: biochemical; parameters: purchased Cypex, Dundee, UK; host or cells: bacterial membranes (bactosomes)
T1 sequence (P05093 1-508): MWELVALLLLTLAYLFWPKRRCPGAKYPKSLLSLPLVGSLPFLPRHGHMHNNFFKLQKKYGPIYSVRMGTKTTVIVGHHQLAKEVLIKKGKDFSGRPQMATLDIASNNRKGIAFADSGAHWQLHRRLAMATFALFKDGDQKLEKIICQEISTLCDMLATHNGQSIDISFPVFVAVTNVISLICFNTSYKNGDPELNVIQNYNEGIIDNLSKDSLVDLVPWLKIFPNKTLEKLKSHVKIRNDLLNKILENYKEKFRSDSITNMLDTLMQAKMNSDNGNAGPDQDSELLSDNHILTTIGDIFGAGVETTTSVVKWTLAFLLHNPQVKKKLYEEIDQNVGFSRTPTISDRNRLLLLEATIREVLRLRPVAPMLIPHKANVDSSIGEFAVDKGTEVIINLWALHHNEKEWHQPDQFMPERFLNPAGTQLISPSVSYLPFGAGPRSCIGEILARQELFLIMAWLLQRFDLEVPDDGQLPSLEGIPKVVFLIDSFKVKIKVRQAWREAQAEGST
Description: CYP17A1 inhibition was measured using 20 pmol/ml CYP17A1 bactosomes (Cypex, Dundee, UK) and 0.1 μM progesterone as a substrate and 1 mM NADPH in 50 mM potassium phosphate buffer pH 7.4 containing 5 mM magnesium chloride. Inhibitors were dissolved in DMSO and serially diluted in seven ½ log steps, final concentrations ranging from 50 μM to 50 nM. Reaction volume was 100 μl and final DMSO concentration was 1% (v/v). Reactions were started by the addition of NADPH and incubated at 37° C. for 20 minutes with shaking at 1800 rpm on a Bioshake IQ (Q-Instruments, Jena, Germany). Reactions were terminated by the addition of 200 μl methanol containing 1 μM tolbutamide as an internal standard.

CYP1A2 = biological target: T2, CYP1A2 (Homo sapiens, UniProt P05177); assay: CYP inhibition, 5 CYP bactosome mix: CYP1A2 (tacrine); format: in vitro ADME; settings: tacrine 0.5 μM
T2 construct: purchased Cypex, Dundee CYP/XG001, Batch XG001001; host or cells: E. coli
T2 sequence (P05177 1-516): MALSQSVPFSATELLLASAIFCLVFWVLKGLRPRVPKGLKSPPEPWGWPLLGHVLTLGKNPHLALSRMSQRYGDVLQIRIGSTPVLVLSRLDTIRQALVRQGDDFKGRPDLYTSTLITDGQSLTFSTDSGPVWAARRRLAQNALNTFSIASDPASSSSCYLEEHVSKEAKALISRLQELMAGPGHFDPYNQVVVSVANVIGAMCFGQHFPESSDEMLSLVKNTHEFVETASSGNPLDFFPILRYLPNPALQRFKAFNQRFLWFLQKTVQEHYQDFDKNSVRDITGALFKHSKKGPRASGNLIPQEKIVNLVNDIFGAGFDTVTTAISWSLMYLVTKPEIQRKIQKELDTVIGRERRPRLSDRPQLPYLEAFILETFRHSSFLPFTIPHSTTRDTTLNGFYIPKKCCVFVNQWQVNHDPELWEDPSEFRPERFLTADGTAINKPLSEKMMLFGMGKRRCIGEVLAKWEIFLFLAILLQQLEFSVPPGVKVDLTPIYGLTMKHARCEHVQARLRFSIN
Excerpt: (§1) CYP Inhibition Against Major 5 Human Liver CYPs in E. coli CYPEX Membranes
The final DMSO concentration was 1%.

CYP2D6 = biological target: T3, CYP2D6 (Homo sapiens, UniProt P10635); assay: CYP inhibition, 5 CYP bactosome mix: CYP2D6 (bufuralol); format: in vitro ADME; settings: bufuralol 10 μM
T3 construct: purchased Cypex, Dundee CYP/XG001, Batch XG001001; host or cells: E. coli
T3 sequence (P10635 whole entry): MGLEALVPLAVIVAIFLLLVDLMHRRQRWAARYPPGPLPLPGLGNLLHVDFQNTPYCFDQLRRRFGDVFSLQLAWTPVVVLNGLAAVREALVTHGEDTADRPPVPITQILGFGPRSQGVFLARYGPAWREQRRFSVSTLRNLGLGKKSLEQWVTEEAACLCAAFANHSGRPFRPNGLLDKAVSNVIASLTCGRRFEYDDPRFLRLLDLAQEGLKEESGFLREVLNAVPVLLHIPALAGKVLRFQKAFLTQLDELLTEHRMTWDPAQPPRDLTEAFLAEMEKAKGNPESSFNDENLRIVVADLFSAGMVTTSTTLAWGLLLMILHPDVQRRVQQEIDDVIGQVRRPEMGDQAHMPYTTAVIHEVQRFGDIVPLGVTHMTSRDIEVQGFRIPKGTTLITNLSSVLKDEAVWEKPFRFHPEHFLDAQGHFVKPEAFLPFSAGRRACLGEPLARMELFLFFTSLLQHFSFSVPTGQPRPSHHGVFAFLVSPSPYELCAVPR
Excerpt: as §1
The final DMSO concentration was 1%.

[1] = system: CYP1A2, CYP2C9, CYP2C19, CYP2D6, and CYP3A4; assay: CYP inhibition against major 5 human liver CYPs (panel, summary in words); format: in vitro ADME; settings: drug-drug interaction remark
Solubility in DMSO = format: physicochemical
CYP3A4 = biological target: T4, CYP3A4 (Homo sapiens, UniProt P08684); assay: CYP inhibition, 5 CYP bactosome mix: CYP3A4 (midazolam); format: in vitro ADME; settings: midazolam 2.5 μM
T4 construct: purchased Cypex, Dundee CYP/XG001, Batch XG001001; host or cells: E. coli
T4 sequence (P08684 whole entry): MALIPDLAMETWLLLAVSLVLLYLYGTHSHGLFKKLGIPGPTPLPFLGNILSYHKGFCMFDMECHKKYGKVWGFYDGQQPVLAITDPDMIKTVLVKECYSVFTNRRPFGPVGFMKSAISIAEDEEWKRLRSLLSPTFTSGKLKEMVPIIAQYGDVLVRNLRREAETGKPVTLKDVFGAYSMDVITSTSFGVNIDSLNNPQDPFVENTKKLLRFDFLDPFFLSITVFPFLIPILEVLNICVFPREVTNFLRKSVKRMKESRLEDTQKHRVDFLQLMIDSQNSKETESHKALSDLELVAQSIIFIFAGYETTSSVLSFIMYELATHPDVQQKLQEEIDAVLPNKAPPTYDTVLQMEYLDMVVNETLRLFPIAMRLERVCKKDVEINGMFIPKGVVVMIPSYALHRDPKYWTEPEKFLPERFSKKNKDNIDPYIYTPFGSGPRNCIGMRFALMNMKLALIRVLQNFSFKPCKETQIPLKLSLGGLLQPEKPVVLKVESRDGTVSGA
Excerpt: as §1
The final DMSO concentration was 1%.

CYP2C19 = biological target: T5, CYP2C19 (Homo sapiens, UniProt P33261); assay: CYP inhibition, 5 CYP bactosome mix: CYP2C19 ((S)-mephenytoin); format: in vitro ADME; settings: (S)-mephenytoin 40 μM
T5 construct: purchased Cypex, Dundee CYP/XG001, Batch XG001001; host or cells: E. coli
T5 sequence (P33261 whole entry): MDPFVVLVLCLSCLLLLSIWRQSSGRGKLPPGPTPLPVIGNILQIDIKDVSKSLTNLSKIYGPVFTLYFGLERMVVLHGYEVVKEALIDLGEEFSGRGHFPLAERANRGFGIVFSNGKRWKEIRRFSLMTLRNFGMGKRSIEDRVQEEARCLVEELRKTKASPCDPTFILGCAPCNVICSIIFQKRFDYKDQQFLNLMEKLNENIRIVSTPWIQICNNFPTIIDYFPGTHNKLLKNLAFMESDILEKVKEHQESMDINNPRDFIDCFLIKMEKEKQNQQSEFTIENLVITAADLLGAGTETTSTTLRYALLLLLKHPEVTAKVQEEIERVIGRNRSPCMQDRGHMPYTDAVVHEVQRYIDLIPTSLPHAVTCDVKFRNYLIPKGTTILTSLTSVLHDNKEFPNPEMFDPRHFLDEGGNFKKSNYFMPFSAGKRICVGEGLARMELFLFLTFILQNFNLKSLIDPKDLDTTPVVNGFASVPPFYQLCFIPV
Excerpt: as §1
The final DMSO concentration was 1%.

For `Cc1nc(SC(C(=O)c2c[nH]c3ccccc23)c2ccccc2)sc1CC(N)=O` (racemic) [Compound 3, 2-(2-{[2-(1H-indol-3-yl)-2-oxo-1-phenylethyl]sulfanyl}-4-methyl-1,3-thiazol-5-yl)acetamide], the IC50 (CYP17A1; 20 pmol/ml bactosomes, 0.1 μM progesterone, 50 μM to 50 nM) was greater than 34.1 µM, the “inhibitory potency of CYP17A1 (in words)” value (CYP17A1; summary of Table 2) was “micromolar levels” and the IC50 (CYP1A2) was 12.6 µM. For the same compound, the IC50 (CYP2D6) was 15 µM, the “inhibition of metabolic CYP450 isoforms (in words)” value [1] was “inhibit various CYP450 isoforms” and the safety profile (Toxicity studies) was “reasonably good safety profiles”. For the same compound, the “Soluble in DMSO” value (Solubility in DMSO) was “Yes”, the IC50 (CYP3A4) was 2.7 µM and the IC50 (CYP2C19) was 8.3 µM.

— patent US20200247794A1, “PHARMACOPHORES, COMPOUNDS AND METHODS HAVING APPLICATION IN THE TREATMENT OF CANCER THROUGH INHIBITION OF CYP17A1 AND CYP19A1” (MANGOSUTHU UNIVERSITY OF TECHNOLOGY, priority 2015, published 2020)
